Test results from patent US7897568B2, “Compositions for treatment of cancer” (priority 2006, dated 2011).
Where a SMILES comes first, the peptide text is derived from it. Where no end group is shown, it is not given here.

Columns and labels:
MCF7-Neo cells = assay: Microinjection of ANK peptide then nocodazole, mitotic arrest/apoptosis count; format: cell-based; details: MCF7-Neo5 cells, ANK peptide microinjected, nocodazole treated; versus uninjected
Method: (§1) ANK peptide interference with SNCG-BubR1 association in vivo was examined in a stable breast cancer cell line MCF7 expressing SNCG (MCF7-SNCG) and a control SNCG negative cell line (MCF7-Neo). […] Significant numbers of cells survived after treatment with the ANK peptide by microinjection in both cell lines. After microinjection, cells were treated with 0.5 μM nocodazole for 24 hours and the fraction of mitotically arrested cells was counted.
(§2) MCF7-SNCG and MCF-Neo were grown to 80% confluence, split with trypsin and seeded on a 22 mm glass coverslip treated with human fibronectin ([…]) into 60 mm diameter dishes containing cell maintenance medium for 24 hours and utilized for the experiments. In initial experiments ANK peptide (5, 10 or 100 μM) was microinjected. In all further experiment to date, ANK peptide (10 μM), together with goat IgG (1 mg/ml) and fluoroscein isothiocyanate (FITC, 5 mg/ml; Molecular Probes) into the MCF7-SNCG or MCF7-Neo cells under a 40× magnification of phase contrast microscope (Carl Zeiss Inc.) using a pressure injection system (Femtojet, Eppendorf). To exclude the possibility that microinjection might affect cell cycle and proliferation, MCF7-Neo and MCF7-SNCG were microinjected with goat IgG as a control. Injections were done at a constant flow setup by varying the injection pressure Pc between 40-70 units. The microscope stage was kept at 37° C. using thermal control device (Tempcontrol-37-2 Digital). Approximately 25-30 cells were microinjected in each experiment (n=3). Cells were quickly incubated to revive. […]
(§3) For the immunofluorescence experiments, cells were fixed in 0.5% buffered paraformaldehyde for 8 minutes at room temperature. […] Cells were scored by identifying cells containing Alexa Fluor 488 excited at 488 nm, and the emission measured at 500-535 nm; DAPI was excited at 345 nm and the emission was measured at 445 nm. […] Mitotic index was determined as described by Gupta et al. (Oncogene 2003 22:7593-7599) and Inaba et al. Breast Cancer Res. Treat. […]

MCF7-SNCG cells = assay: as above; format: cell-based; details: ANK peptide microinjected, 0.5 μM nocodazole for 24 hours; versus uninjected
Method: as §1, §2, §3

SNCG = SNCG (Homo sapiens, UniProt O76070); assay: Co-immunoprecipitation of EGFP-ANK with anti-SNCG antibody; format: binding; design: expressed in transfected cells; host or cells: MCF7-SNCG (MCF7 stably expressing SNCG)
Chain of SNCG (O76070 whole entry): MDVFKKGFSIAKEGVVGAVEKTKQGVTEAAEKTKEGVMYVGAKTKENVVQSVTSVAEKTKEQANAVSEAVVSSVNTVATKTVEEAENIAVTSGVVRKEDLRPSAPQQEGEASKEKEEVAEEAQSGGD

MCF7-SNCG and T47D cells = assay: Mitotic index by anti-phospho-H3 immunostaining (microscopy) after paclitaxel; format: cell-based; details: over-expressing EGFP-ANK in MCF7-SNCG and T47D cells
Method: FIG. 7A through D show expression of EGFP-ANK disrupting the SNCG-mediated inhibition of mitotic checkpoint function as measured by microscopy and flow cytometry. The bar graphs show the expression of EGFP-ANK disrupting the SNCG-mediated inhibition of mitotic checkpoint function, using (FIG. 7A) DAPI and (FIG. 7B) anti-phospho-H^3 staining. For graphs of FIGS. 7A and 7B, the cells treated with 0.5 μM paclitaxel for 18 hours or untreated control cells were fixed with 4% paraformaldehyde for 20 minutes at room temperature. In both cases, the cells were then stained with 1 μg/ml of DAPI or 2 μg/ml anti-phospho-H3 primary and Texas Red goat anti-rabbit secondary antibodies (Invitrogen). Green fluorescent cells were identified for positive transfected cells. For each sample, 200-300 cells randomly chosen from 5 different views under a Nikon fluorescent microscope were scored for interphase, mitotic, or apoptotic based upon nuclei morphology. The data shown were derived from three separate transfections (p<0.01). […]
Two days after transfection, cells were exposed to paclitaxel for 18 hours and numbers of mitotic arrested and apoptotic cells were counted after DAPI staining. […] These cells were also probed with rabbit polyclonal anti-phospho-H^3 and the mitotic index was calculated according to the proportion of the number of H^3 stained EGFP positive cells to total EGFP positive cells (FIG. 7B). […]

Molecule | number of cells undergoing mitotic arrest/apoptosis (MCF7-Neo cells) | level of mitotically arrested cells (MCF7-SNCG cells) | co-precipitation with SNCG in anti-SNCG IP complexes (SNCG; MCF7-SNCG cells transfected with pEGFP-ANK, western blot with anti-GFP) | presence in anti-SNCG IP complexes (SNCG; MCF7-neo cells (SNCG negative control)) | sensitivity to paclitaxel by anti-phospho-H3 mitotic index (MCF7-SNCG and T47D cells)
CC[C@H](C)[C@H](NC(=O)[C@H](CS)NC(=O)CNC(=O)[C@H](CC(C)C)NC(=O)[C@H](Cc1c[nH]cn1)NC(=O)CNC(=O)[C@H](Cc1c[nH]cn1)NC(=O)[C@H](CCC(N)=O)NC(=O)[C@H](CO)NC(=O)[C@H](C)NC(=O)[C@@H](NC(=O)[C@H](Cc1c[nH]cn1)NC(=O)[C@H](CC(C)C)NC(=O)[C@H](C)NC(=O)[C@H](CO)NC(=O)[C@H](CC(N)=O)NC(=O)CNC(=O)[C@H](CCCCN)NC(C)=O)C(C)C)C(=O)N[C@@H](CCC(N)=O)C(=O)N[C@H](C(=O)N[C@@H](CC(C)C)C(=O)N[C@H](C(=O)N[C@@H](CCCNC(=N)N)C(=O)N[C@@H](Cc1ccc(O)cc1)C(=O)NCC(=O)N[C@@H](C)C(=O)N[C@@H](CC(N)=O)C(=O)N[C@H](C(=O)N[C@H](C(=O)N[C@@H](CCSC)C(=O)N[C@@H](CCC(N)=O)C(=O)N[C@@H](CC(N)=O)C(=O)N[C@@H](Cc1c[nH]cn1)C(=O)NCC(N)=O)[C@@H](C)O)C(C)C)C(C)C)[C@@H](C)O [ANK peptide] (Ac-KGNSALHVASQHGHLGCIQTLVRYGANVTMQNHG-NH2) | not significantly affected | significantly (p<0.05) increased |  |  | 
EGFP-ANK: ANK peptide expressed as a fusion protein with its amino-terminal linked to EGFP protein, approximately 37 kDa ({EGFP}-KGNSALHVASQHGHLGCIQTLVRYGANVTMQNHG) |  |  | co-precipitate with SNCG | not in the IP complexes | increases in sensitivity to paclitaxel
